Measured values taken from patent US20160083400A1, “TRICYCLIC GUANIDINE DERIVATIVE” (Sunovion Pharmaceuticals Inc., priority 2014, published 2016).

How the values were obtained:
Type in all cases: biochemical
[1] = molecular target: PDE1C (Homo sapiens, UniProt Q14123); assay: In vitro HTRF PDE1 inhibition assay (PDE1C)
Excerpt: (§1) An exemplary procedure for the in vitro Homogenous Time Resolved Fluorescence (HTRF) assay, which can be used to determine the inhibitory action of compounds of the invention toward PDE1 or its isoforms, follows.
(§2) The HTRF PDE1 assay utilized the HTRF technology, which is based on the competition between unlabeled cyclic nucleotide and cyclic nucleotide labeled with XL665 for the binding to cyclic nucleotide-specific antibody labeled with cryptate. The HTRF signal is thus inversely proportional to the concentration of cyclic nucleotide being measured. Since phosphodiesterases break down cyclic nucleotides the HTRF signal was used to determine PDE activity.
(§3) The Cisbio cGMP HTRF assay kit (Cat no: 62GM2PEC) was utilized. Cyclic GMP was diluted to 200 nM in HTRF assay buffer (1 mM CaCl2, 10 mM MgCl2, 10 mM Tris-HCl, 0.1% BSA, pH7.4). 10 μl of compound or DMSO was diluted in 200 nM cyclic GMP solution and added to wells of a 96 well white plate to give 100 nM cyclic GMP in 1% DMSO final concentration. PDE (1A3, 1B or 1C) was diluted to 2× working concentration in HTRF assay buffer with 4 μg/ml Calmodulin, and 10 μl was added to initiate the reaction. The plate was then incubated for 45 minutes at 37° C. d2-Labelled cyclic GMP and anti-cGMP cryptate were diluted in 50 mM phosphate buffer, 0.8M KF, 1% Triton X100, 0.2% BSA, pH7.0. Following incubation 10 μl d2-cGMP, then 10 μl anti cGMP cryptate were added to each well and the plate was incubated for 45 minutes at rt. The plate was then read on Perkin Elmer Victor at 2 different FRET readings ex/emm 340 nm/665 nm and 340 nm/615 nm.
(§4) Compounds having an IC50 of <1 μM, are denoted as +++. Compounds having an IC50 of 1-10 μM, are denoted as ++. Compounds having an IC50 of 10-100 μM, are denoted as +.

[2] = molecular target: PDE1A (PDE 1A3) (Homo sapiens, UniProt P54750); assay: In vitro HTRF PDE1 inhibition assay (PDE1A); conditions: PDE1A (1A3); 100 nM cyclic GMP, calmodulin, 45 minutes at 37° C.
Chain of PDE1A (PDE 1A3) (P54750 whole entry): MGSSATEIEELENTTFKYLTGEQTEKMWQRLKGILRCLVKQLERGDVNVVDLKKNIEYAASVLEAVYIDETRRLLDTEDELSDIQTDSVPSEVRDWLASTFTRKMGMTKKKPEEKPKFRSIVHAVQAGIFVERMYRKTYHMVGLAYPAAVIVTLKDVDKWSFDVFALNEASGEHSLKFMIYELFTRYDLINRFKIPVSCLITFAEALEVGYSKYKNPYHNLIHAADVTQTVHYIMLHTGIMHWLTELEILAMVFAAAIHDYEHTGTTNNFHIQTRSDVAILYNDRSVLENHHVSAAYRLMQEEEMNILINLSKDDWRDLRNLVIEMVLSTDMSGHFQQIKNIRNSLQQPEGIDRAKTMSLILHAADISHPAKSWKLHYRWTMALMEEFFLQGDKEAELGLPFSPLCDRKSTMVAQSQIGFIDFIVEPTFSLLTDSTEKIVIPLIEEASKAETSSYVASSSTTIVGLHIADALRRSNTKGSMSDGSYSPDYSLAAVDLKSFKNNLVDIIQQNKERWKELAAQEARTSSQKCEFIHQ
Excerpt: as §1, §2, §3, §4

[3] = molecular target: PDE1B (Homo sapiens, UniProt Q01064); assay: In vitro HTRF PDE1 inhibition assay (PDE1B); conditions: 100 nM cyclic GMP, calmodulin, 45 minutes at 37° C.
Chain of PDE1B (Q01064 whole entry): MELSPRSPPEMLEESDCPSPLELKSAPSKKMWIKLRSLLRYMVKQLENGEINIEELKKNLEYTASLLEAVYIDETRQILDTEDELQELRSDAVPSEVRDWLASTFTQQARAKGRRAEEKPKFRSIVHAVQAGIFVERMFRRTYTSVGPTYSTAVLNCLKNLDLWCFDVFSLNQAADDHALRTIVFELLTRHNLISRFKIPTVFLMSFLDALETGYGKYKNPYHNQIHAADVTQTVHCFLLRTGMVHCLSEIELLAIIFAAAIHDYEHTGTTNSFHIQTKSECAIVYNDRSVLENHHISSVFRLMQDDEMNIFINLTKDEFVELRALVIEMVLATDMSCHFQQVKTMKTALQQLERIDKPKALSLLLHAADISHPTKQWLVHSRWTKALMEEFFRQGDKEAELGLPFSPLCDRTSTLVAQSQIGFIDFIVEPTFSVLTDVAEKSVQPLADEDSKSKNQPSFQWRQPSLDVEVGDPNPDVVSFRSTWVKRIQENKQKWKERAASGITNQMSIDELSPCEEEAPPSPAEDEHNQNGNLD

Chain of PDE1C (Q14123 whole entry, canonical isoform): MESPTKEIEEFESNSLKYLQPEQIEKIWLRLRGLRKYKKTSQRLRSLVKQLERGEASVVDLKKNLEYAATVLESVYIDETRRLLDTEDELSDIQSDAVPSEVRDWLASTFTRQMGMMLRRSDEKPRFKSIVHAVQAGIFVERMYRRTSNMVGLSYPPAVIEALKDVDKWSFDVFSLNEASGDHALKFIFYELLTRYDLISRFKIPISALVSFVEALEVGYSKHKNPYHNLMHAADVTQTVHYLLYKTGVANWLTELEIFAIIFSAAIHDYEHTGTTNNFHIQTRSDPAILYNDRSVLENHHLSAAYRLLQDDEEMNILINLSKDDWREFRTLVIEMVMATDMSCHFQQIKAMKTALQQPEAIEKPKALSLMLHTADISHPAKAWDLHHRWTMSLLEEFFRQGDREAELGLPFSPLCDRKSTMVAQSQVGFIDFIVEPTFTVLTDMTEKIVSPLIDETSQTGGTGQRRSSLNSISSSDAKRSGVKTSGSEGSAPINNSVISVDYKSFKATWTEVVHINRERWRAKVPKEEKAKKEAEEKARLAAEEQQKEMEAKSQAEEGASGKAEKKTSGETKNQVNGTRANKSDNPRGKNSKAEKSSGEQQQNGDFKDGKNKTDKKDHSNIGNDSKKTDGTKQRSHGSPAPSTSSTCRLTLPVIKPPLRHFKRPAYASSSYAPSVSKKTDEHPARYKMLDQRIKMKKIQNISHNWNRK

Row | Compound | IC50 [1] [nM] | IC50 [2] [µM] | IC50 [3] [µM]
1 | CC(C)c1ncc2c(=O)n3c(nn12)NCCC3 [Example 52] | 1000 to 10000 | 1 to 10 | < 1
2 | CC(C)c1ncc2c(=O)n3c(nn12)N[C@@H](c1ccc(Cl)cc1)CC3 [Example 18, (2R)-2-(4-Chlorophenyl)-9-isopropyl-1,2,3,4-tetrahydro-6H-imidazo[5,1-f]pyrimido[2,1-c][1,2,4]triazin-6-one] | 1000 to 10000 | < 1 | < 1
3 | O=c1c2cnc(C3CCCC3)n2nc2n1CC[C@H](c1ccc(Cl)cc1)N2 [Example 61] | < 1000 | < 1 | < 1
4 | CC(C)n1ncc2c(=O)n3c(nc21)N[C@@H](c1ccc(Cl)cc1)C3 [Example 144] | < 1000 | < 1 | < 1
5 | O=c1c2cnc(C3CCOCC3)n2nc2n1C[C@H](c1ccc(Cl)cc1)N2 [Example 139] | 1000 to 10000 | < 1 | < 1
6 | COc1ccc([C@H]2Cn3c(nn4c(C5CCOCC5)ncc4c3=O)N2)cc1 [Example 151, (2S)-2-(4-Methoxyphenyl)-8-(tetrahydro-2H-pyran-4-yl)-2,10-dihydro-3H,5H-diimidazo[2,1-c:5′,1′-f][1,2,4]triazin-5-one] | < 1000 | < 1 | < 1
7 | O=c1c2cnc(C3CCOCC3)n2nc2n1CCC(c1ccc(Cl)cc1)N2 (stereo not drawn) [Example 55] | 1000 to 10000 | < 1 | < 1
8 | COc1ccc(C2CCn3c(nn4c(C5CCOCC5)ncc4c3=O)N2)cc1 (stereo not drawn) [Example 57] | < 1000 | < 1 | < 1
9 | CC(C)c1ncc2c(=O)n3c(nn12)NC(c1ccc(Cl)cc1)CC3 (stereo not drawn) [Example 46] | 1000 to 10000 | 10 to 100 | < 1
10 | O=c1c2cnn(C3CCCC3)c2nc2n1CCC(c1ccc(Cl)cc1)N2 (stereo not drawn) [Example 4] | 1000 to 10000 | 1 to 10 | < 1
11 | CC(C)n1ncc2c(=O)n3c(nc21)NC(c1ccc(C(F)(F)F)cc1)CC3 (stereo not drawn) [Example 29] | 1000 to 10000 | < 1 | < 1
12 | Cc1ccc([C@H]2CN3C(=O)c4cnc(C(C)C)n4NC3=N2)cc1 [Example 96, (2S)-8-Isopropyl-2-(4-methylphenyl)-2,10-dihydro-3H,5H-diimidazo[2,1-c:5′,1′-f][1,2,4]triazin-5-one] | < 1000 | < 1 | < 1

Now from value to molecule:

Row | IC50 [1] [nM] | IC50 [2] [µM] | IC50 [3] [µM] | Compound
13 | 1000 to 10000 | < 1 | < 1 | CC(C)(O)c1ncc2c(=O)n3c(nn12)N[C@@H](c1ccc(Cl)cc1)CC3 [Example 242]
14 | 1000 to 10000 | < 1 | < 1 | O=c1c2cnc(C3(C(F)(F)F)CC3)n2nc2n1CC[C@H](c1ccc(Cl)cc1)N2 [Example 238]
15 | 1000 to 10000 | < 1 | < 1 | O=c1c2cnc(C3COC3)n2nc2n1CC[C@H](c1ccc(Cl)cc1)N2 [Example 165]
16 | < 1000 | < 1 | < 1 | CO[C@@H](C)c1ncc2c(=O)n3c(nn12)N[C@@H](c1ccc(Cl)cc1)CC3 [Example 259]
17 | 1000 to 10000 | < 1 | < 1 | CO[C@H](C)c1ncc2c(=O)n3c(nn12)N[C@@H](c1ccc(Cl)cc1)CC3 [Example 260]
18 | 1000 to 10000 | < 1 | < 1 | O=c1c2ncnc(C3CCOCC3)c2nc2n1CCC(c1ccc(Cl)cc1)N2 (stereo not drawn) [Example 265, 7-(4-Chlorophenyl)-4-(tetrahydro-2H-pyran-4-yl)-5,7,8,9-tetrahydro-11H-dipyrimido[1,2-a:5′,4′-d]pyrimidin-11-one]
19 | 1000 to 10000 | < 1 | < 1 | CC(C)c1ncnc2c(=O)n3c(nc12)NC(c1ccc(Cl)cc1)CC3 (stereo not drawn) [Example 176]
20 | < 1000 | < 1 | < 1 | O=c1c2cnc([C@H]3CCOC3)n2nc2n1CC[C@H](c1ccc(Cl)cc1)N2 [Example 225]
21 | < 1000 | < 1 | < 1 | CC[C@H](C)c1ncc2c(=O)n3c(nn12)N[C@@H](c1ccc(Cl)cc1)CC3 [Example 227]
